Key:
VCaP cells = assay: Anti-proliferative toxicity against prostate cancer cell line Vcap (CCK8); format: cell-based, human; details: 3 days; for IC50: Homo sapiens, 72 h, CCK8
How it was run: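 VCaP cells (DMEM, 10% FBS) seeded 20000 cells/well, cultured 72 h, then exposed in triplicate to compound at final well concentrations of 0.00001–0.16 μM for 3 days at 37 °C, 5% CO2. Viability by CCK8, 1–4 h at 37 °C, absorbance at 450 nm.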

PC-3 cells = assay: Anti-proliferative toxicity against prostate cancer cell line PC-3 (CCK8); format: cell-based, human; details: Homo sapiens, 72 h, 3 days
How it was run: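 PC-3 cells (4000/well, pre-cultured 24 h) exposed in triplicate to compound at final 0.00001-1.0 μM for 3 days at 37 °C, 5% CO2. Viability read by CCK8, 1-4 h at 37 °C, absorbance at 450 nm.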

22Rv1 cells = assay: Anti-proliferative toxicity against prostate cancer cell line 22Rv1 (CCK8); format: cell-based, human; details: 3 days; for IC50: Homo sapiens, 72 h, CCK8
How it was run: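 22Rv1 cells pre-cultured for 48 h, then exposed to compounds at 0.00001-1.0 μM final, in triplicate, for 3 days. Viability read by CCK8 absorbance at 450 nm after 1-4 h at 37 °C.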

MDA-MB-468 cells = assay: Anti-proliferative toxicity of C63 in tumor cell lines (CCK8): MDA-MB-468; format: cell-based; details: Homo sapiens, 72 h, 3 days, read-out: Inhibition rate
Protocol: Example 83: Detection of Anti-Proliferative Toxicity of C63 in Some Tumor Cell Lines
MDA-MB-468 cells (purchased from the Cell Bank of the Chinese Academy of Sciences, Cat. No. TCHu136) were subcultured in a culture medium (L15 medium+1% penicillin-streptomycin dual-antibiotic solution+10% fetal bovine serum) in an incubator at 37° C.
MDA-MB-468 cells were seeded at 5000 cells/well (90 μL) on a 96-well plate and cultured for 24 h.
10 mM compound stock solutions were prepared in DMSO.
The compound stock solution was diluted with DMSO to give DMSO solutions 1-9 at concentrations of 0 μM, 2500 μM, 500 μM, 100 μM, 20 μM, 4 μM, 0.8 μM, 0.16 μM, and 0.032 μM.
2 μL of each of solutions 1-9 was added to 98 μL of the medium to give mixed solutions 11-19 of the compound and the medium.
10 μL of each of solutions 11-19 was added to the above cell seed solution to give a total volume of 100 μL (90 μL+10 μL).
The concentrations of the compound in the wells were 0 μM, 5.0 μM, 1.0 μM, 0.2 μM, 0.04 μM, 0.008 μM, 0.0016 μM, 0.00032 μM, and 0.000064 μM. All concentrations were in triplicate.
After the above-treated cells were cultured for 3 days, 10 μL of the CCK8 solution (DOJINDO, Cat. No. PF725) was added to each well. The plate was incubated in an incubator at 37° C. for 1-4 h and then detected on a microplate reader for the reading at 450 nm.

Compound | Anti-proliferative toxicity data in VCaP cells (VCaP cells; 0.00001 μM) [%] | Anti-proliferative toxicity data in VCaP cells (VCaP cells; 0.00005 μM) [%] | Anti-proliferative toxicity data in VCaP cells (VCaP cells; 0.00010 μM) [%] | Anti-proliferative toxicity data in VCaP cells (VCaP cells; 0.00030 μM) [%] | Anti-proliferative toxicity data in VCaP cells (VCaP cells; 0.00100 μM) [%] | Anti-proliferative toxicity data in VCaP cells (VCaP cells; 0.00300 μM) [%] | Anti-proliferative toxicity data in VCaP cells (VCaP cells; 0.00600 μM) [%] | Anti-proliferative toxicity data in VCaP cells (VCaP cells; 0.03200 μM) [%] | Anti-proliferative toxicity data in VCaP cells (VCaP cells; 0.16000 μM) [%] | IC50 (VCaP cells) [pM] | IC50 (PC-3 cells) [pM] | Anti-proliferative toxicity data in 22Rv1 cells (22Rv1 cells; 0.00001 μM) [%] | Anti-proliferative toxicity data in 22Rv1 cells (22Rv1 cells; 0.00006 μM) [%] | Anti-proliferative toxicity data in 22Rv1 cells (22Rv1 cells; 0.00032 μM) [%] | Anti-proliferative toxicity data in 22Rv1 cells (22Rv1 cells; 0.00160 μM) [%] | Anti-proliferative toxicity data in 22Rv1 cells (22Rv1 cells; 0.00800 μM) [%] | Anti-proliferative toxicity data in 22Rv1 cells (22Rv1 cells; 0.04000 μM) [%] | Anti-proliferative toxicity data in 22Rv1 cells (22Rv1 cells; 0.20000 μM) [%] | Anti-proliferative toxicity data in 22Rv1 cells (22Rv1 cells; 1.00000 μM) [%] | IC50 (22Rv1 cells) [pM] | other results
C[C@]12C=CC(=O)N[C@@H]1CC[C@@H]1[C@@H]2CC[C@]2(C)[C@@H](C(=O)Nc3cccc(N[C@@H]4CCC[C@@H](Nc5cccc6c5C(=O)N(C5CCC(=O)NC5=O)C6=O)C4)c3)CC[C@@H]12 (stereo partly drawn) [C59, N-(3-(N—(N-(4-(2-(3-(2,6-dioxopiperidine))-isoindole-1,3-dione))-1R,3R-cyclohexanediamine))phenyl)-3-oxo-4-aza-5α-androst-1-ene-17β-carboxamide] | 0.6 | 62.5 | 78.6 | 88.3 | 92.7 | 93.5 | 94.1 | 94.6 | 94.6 | ≤ 100 | 100 to 10000 | 8.3 | 41.3 | 79.6 | 80.7 | 81.1 | 81.1 | 81.9 | 82.3 | 100 to 10000 | 
C[C@]12C=CC(=O)N[C@@H]1CC[C@@H]1[C@@H]2CC[C@]2(C)[C@@H](C(=O)Nc3cccc(N[C@@H]4CCC[C@@H](Nc5cccc6c5C(=O)N([C@H]5CCC(=O)NC5=O)C6=O)C4)c3)CC[C@@H]12 [C63, N-(3-(N—(N-(4-(2-(3S-(2,6-dioxopiperidine))-isoindole-1,3-dione))-1R,3R-cyclohexanediamine))phenyl)-3-oxo-4-aza-5α-androst-1-ene-17β-carboxamide] | 25.2 | 75.7 | 80.2 | 89.2 | 93.1 | 94.0 | 94.3 | 94.5 | 94.8 | ≤ 100 | 100 to 10000 | 23.5 | 62.4 | 76.5 | 87.8 | 86.5 | 88.0 | 86.9 | 84.5 | 100 to 10000 | inhibition at 64 pM (MDA-MB-468 cells; 0.000064 μM): 4.42%; inhibition at 0.00032 µM (MDA-MB-468 cells; 0.000320 μM): 30.5%; inhibition at 0.0016 µM (MDA-MB-468 cells; 0.001600 μM): 55.1%; inhibition at 0.008 µM (MDA-MB-468 cells; 0.008000 μM): 64.6%; inhibition at 0.04 µM (MDA-MB-468 cells; 0.040000 μM): 65%; inhibition at 0.2 µM (MDA-MB-468 cells; 0.200000 μM): 65.5%; inhibition at 1 µM (MDA-MB-468 cells; 1.000000 μM): 70.2%; inhibition at 5 µM (MDA-MB-468 cells; 5.000000 μM): 74%
